The text below walks through data of ChEMBL document CHEMBL5726333, “C2-carbocyclic iminothiazine dioxides as BACE inhibitors, compositions, and their use” (2017).

pKi: −log10 of the molar value. Where only a bound is given, the exact number is not on record here.

The target in one assay is Beta-secretase 1 (Homo sapiens, UniProt P56817). Put plainly: HTRF FRET Assay: The compounds of the invention were determined to be potent inhibitors of BACE-1 using the following assay.The following reagents were used in this assay. Na+-Acetate pH 5.0; 1% Brij-35; Glycerol; Dimethyl Sulfoxide (DMSO); Recombinant human soluble BACE-1 catalytic domain (>95% pure); APP Swedish mutant peptide substrate (QSY7-APPswe-Eu): QSY7-[…]-Europium-amide.A homogeneous time-resolved FRET assay can be used to determine IC50 values for inhibitors of the soluble human BACE-1 catalytic domain. This assay monitors the increase of 620 nm fluorescence that resulted from BACE-1 cleavage of an APPswedish APPswe mutant peptide FRET substrate (QSY7-[…]-Europium-amide). This substrate contains an N-terminal QSY7 moiety that serves as a quencher of the C-terminal Europium fluorophore (620 nm Em). In the absence of enzyme activity, 620 nm fluorescence is low in the assay and increased linearly over 3 hours in the presence of uninhibited BACE-1 enzyme. Inhibition of BACE-1 cleavage of the QSY7-APPswe-Eu substrate by inhibitors is manifested as a suppression of 620 nm fluorescence.
Chain of Beta-secretase 1 (P56817 whole entry, the tested form may be a part): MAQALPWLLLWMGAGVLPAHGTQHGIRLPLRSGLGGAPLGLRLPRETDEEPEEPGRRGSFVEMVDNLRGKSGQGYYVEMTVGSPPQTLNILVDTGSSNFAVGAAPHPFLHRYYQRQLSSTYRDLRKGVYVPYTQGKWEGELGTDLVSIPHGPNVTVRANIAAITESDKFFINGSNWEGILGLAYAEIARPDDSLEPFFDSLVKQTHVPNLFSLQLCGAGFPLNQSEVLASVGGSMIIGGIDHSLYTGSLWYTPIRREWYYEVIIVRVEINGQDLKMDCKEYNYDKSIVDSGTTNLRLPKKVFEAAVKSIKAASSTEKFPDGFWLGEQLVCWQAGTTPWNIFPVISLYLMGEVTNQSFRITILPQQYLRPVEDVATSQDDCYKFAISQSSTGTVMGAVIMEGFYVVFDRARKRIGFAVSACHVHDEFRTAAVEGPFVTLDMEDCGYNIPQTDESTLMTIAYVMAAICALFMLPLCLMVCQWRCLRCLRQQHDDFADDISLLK

The target in another assay is Cathepsin D (Homo sapiens, UniProt P07339). The assay can be described thus: Cathepsin-D Assay: The following reagents were used in this assay: Na+-Acetate pH 5.0; 1% Brij-35; Dimethyl Sulfoxide (DMSO); Purified human Cathepsin-D (>95% pure); Aspartyl protease peptide substrate AC-Cys(Eu_Chelate)-Gly-Lys-Pro_ile_leu_phe-Phe-Arg-Leu-Lys(QSY7)-ASP-ASP-NH2.As noted above, certain compounds of the invention exhibit good selectivity of BACE-1 over Cathepsin-D. A homogeneous ….
Chain of Cathepsin D (P07339 65-162 limits assumed): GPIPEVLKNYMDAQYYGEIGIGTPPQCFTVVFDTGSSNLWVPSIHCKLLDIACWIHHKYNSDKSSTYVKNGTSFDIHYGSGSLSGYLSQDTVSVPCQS
Chain of Cathepsin D (P07339 169-412 limits assumed): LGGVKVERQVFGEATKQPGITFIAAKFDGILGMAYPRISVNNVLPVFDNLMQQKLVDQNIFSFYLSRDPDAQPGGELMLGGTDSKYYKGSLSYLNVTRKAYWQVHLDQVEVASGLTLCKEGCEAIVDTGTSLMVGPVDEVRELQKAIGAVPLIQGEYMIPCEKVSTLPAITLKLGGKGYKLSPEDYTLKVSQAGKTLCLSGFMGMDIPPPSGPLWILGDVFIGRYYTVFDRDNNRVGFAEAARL

Another assay addresses T1, Beta-secretase 2 (Homo sapiens, UniProt Q9Y5Z0).
T1 sequence (Q9Y5Z0 whole entry): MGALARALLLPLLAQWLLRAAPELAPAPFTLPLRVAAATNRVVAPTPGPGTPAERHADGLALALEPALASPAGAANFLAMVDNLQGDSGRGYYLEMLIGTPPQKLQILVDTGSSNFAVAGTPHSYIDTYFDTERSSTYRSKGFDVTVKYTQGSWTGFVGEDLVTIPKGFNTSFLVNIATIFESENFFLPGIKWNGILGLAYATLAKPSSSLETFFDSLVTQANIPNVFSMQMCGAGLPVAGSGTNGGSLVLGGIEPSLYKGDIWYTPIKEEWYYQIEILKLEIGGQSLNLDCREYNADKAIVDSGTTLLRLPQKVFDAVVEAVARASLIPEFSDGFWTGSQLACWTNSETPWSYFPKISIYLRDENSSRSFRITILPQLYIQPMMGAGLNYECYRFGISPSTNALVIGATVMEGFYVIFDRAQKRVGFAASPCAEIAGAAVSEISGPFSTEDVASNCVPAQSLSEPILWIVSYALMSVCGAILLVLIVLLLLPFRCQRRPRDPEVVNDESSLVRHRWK
Put plainly: BACE-2 Assay: The compounds of the invention were determined to be potent inhibitors of BACE-2 using the following assay. Inhibitor IC50s at purified human autoBACE-2 are determined in a time-resolved endpoint proteolysis assay that measures hydrolysis of the QSY7-[…]-Eu-amide FRET peptide substrate (BACE-HTRF assay). BACE-mediated hydrolysis of this peptide results in an increase in relative fluorescence (RFU) at 620 nm after excitation with 320 nm light Inhibitor compounds, prepared at 3× the desired final concentration in 1×BACE assay buffer (20 mM sodium acetate pH 5.0, 10% glycerol, 0.1% Brij-35) supplemented with 7.5% DMSO are pre-incubated with an equal volume of autoBACE-2 enzyme diluted in 1×BACE assay buffer (final enzyme concentration 1 nM) in black 384-well NUNC plates for 30 minutes at 30° C. […] DMSO is present at 5% final concentration in the assay. Following laser excitation of sample wells at 320 nm, the fluorescence signal at 620 nm is collected for 400 ms following a 50 μs delay on a RUBYstar HTRF plate reader (BMG Labtechnologies). Raw RFU data is normalized to maximum (1.0 nM BACE/DMSO) and minimum (no enzyme/DMSO) RFU values.

Description for Cathepsin D: This substrate contains an C-terminal QSY7 moiety that serves as a quencher of the N-terminal Europium fluorophore (620 nm Em). In the absence of enzyme activity, 620 nm fluorescence is low in the assay and increased linearly over 1 hour in the presence of uninhibited Cathepsin-D enzyme. Inhibition of Cathespin D cleavage of the Eu-Aspartyl Protease-QSY7 substrate by inhibitors is manifested as a suppression of 620 nm fluorescence.

`COc1cnc2c(Nc3cc([C@]4(C)CS(=O)(=O)[C@@](C)(C5CC5)C(N)=N4)c(F)cn3)ccnc2n1`: the values for the pKi at Beta-secretase 1, at Cathepsin D and at Beta-secretase 2 were 8.28, below 5.03 and 8.66, respectively.
Turning to `CC#CCOc1cnc2c(Nc3cc([C@]4(C)CS(=O)(=O)[C@@](C)(C5CC5)C(N)=N4)c(F)cn3)nccc2n1`, the pKi at Beta-secretase 1 was 8.82; on Cathepsin D it was below 5.03; at Beta-secretase 2, 8.92.
Consider `COc1cnc2c(Nc3ccc(F)c([C@]4(C)CS(=O)(=O)[C@@](C)(C5CC5)C(N)=N4)c3)ccnc2n1`, for which the pKi on Beta-secretase 1 is 7.40; on Cathepsin D it was below 5.03; on Beta-secretase 2, 7.28.
Consider `C[C@@]1(c2cc(Nc3ccnc4cc(F)cnc34)ncc2F)CS(=O)(=O)[C@@](C)(C2CC2)C(N)=N1`, for which the values for the pKi on Beta-secretase 1, on Cathepsin D and on Beta-secretase 2 were 8.07, 5.31 and 8.77, respectively.
`C[C@@]1(c2cc(Nc3ncnc4cc(C#N)cnc34)ncc2F)CS(=O)(=O)[C@@](C)(C2CC2)C(N)=N1`: the pKi on Beta-secretase 1 was 7.89; on Cathepsin D, below 5.03; on Beta-secretase 2, 7.72.
Turning to `CC#CCOc1cnc2c(Nc3cnc(F)c([C@]4(C)CS(=O)(=O)[C@@](C)(C5CC5)C(N)=N4)c3)nccc2c1`, the values for the pKi at Beta-secretase 1, at Cathepsin D and on Beta-secretase 2 were 8.55, below 5.03 and 6.92, respectively.
Taken in the same sequence, the figures for `C[C@@]1(c2cc(Nc3nccc4cc(F)cnc34)ncc2F)CS(=O)(=O)[C@@](C)(C2CC2)C(N)=N1` were 7.92, below 5.03 and 9.00.
Regarding `CC#CCOc1cnc2c(Nc3cnc(F)c([C@]4(C)CS(=O)(=O)[C@@](C)(C5CC5)C(N)=N4)c3)nccc2n1`, the pKi on Beta-secretase 1 is 8.74; at Cathepsin D, below 5.03; on Beta-secretase 2 it was 7.62.
Taken in the same sequence, the figures for `C[C@@]1(c2cc(Nc3ccnc4cccnc34)ncc2F)CS(=O)(=O)[C@@](C)(C2CC2)C(N)=N1` were 7.23, below 5.03 and 8.44.
`C[C@@]1(c2cc(Nc3nccc4cc(C#N)cnc34)ccc2F)CS(=O)(=O)[C@@](CF)(C2CC2)C(N)=N1`: the pKi on Beta-secretase 1 is 8.89; at Cathepsin D, 6.25; on Beta-secretase 2, 9.22.
`COc1cnc2c(Nc3ccc(F)c([C@]4(C)CS(=O)(=O)[C@@](C)(C5CC5)C(N)=N4)c3)ccnc2c1`: the values for the pKi at Beta-secretase 1, on Cathepsin D and at Beta-secretase 2 were 7.57, below 5.03 and 7.70, respectively.
